# Laboratory results from PMC9822553 (iScience, 2023).
# Tests used:
# Format in all cases: cell-based
# [1] = tested on: SARS-CoV-2 variant G614
# [2] = tested on: SARS-CoV-2 variant G614; remark: listed apart in the source
# [3] = tested on: SARS-CoV-2 strain FFM3; assay: microbe, parasite or virus in culture; conditions: Severe acute respiratory syndrome coronavirus 2, read-out: IC50 concentration
Compound,effect on caspase 3/7 activity [1],effect on SARS-CoV-2 replication and CPE formation [2],IC50 [3] [nM]
C[C@H](NC(=O)C(=O)Nc1ccccc1C(C)(C)C)C(=O)N[C@@H](CC(=O)O)C(=O)COc1c(F)c(F)cc(F)c1F [emricasan],suppressing caspase 3/7 activity,did not interfere with SARS-CoV-2 replication and CPE formation,
CCC(CC)COC(=O)[C@H](C)N[P@](=O)(OC[C@H]1O[C@@](C#N)(c2ccc3c(N)ncnn23)[C@H](O)[C@@H]1O)Oc1ccccc1 [remdesivir],,,500
